The values that follow come from patent publication US12509444B2, “Compounds and methods for CD73 modulation and indications therefor” (Plexxikon Inc., priority 2019, dated 2025).

One may read the IC50 as the concentration that inhibits the measured activity by half.

Test [1] concerns the target T1, Human CD73 (amino acid residues 27-549) (Homo sapiens, UniProt P21589).
T1 construct: Human CD73 (amino acid residues 27-549); His tag (N); made in house; host or cells: E. coli
T1 sequence (P21589 27-549): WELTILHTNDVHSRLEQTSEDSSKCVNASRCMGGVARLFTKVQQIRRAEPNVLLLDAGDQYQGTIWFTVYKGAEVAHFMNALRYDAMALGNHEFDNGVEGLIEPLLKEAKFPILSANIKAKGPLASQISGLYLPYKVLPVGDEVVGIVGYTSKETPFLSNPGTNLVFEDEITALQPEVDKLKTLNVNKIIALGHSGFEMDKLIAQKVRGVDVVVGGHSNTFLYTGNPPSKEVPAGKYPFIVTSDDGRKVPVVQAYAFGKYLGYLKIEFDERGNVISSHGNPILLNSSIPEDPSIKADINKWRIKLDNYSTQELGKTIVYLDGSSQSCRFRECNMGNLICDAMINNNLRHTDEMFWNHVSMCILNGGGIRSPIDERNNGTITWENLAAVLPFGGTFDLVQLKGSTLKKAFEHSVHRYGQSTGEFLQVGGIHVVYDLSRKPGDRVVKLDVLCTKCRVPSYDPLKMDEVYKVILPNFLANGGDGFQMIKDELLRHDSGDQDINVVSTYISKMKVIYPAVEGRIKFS
The test is described as follows: CD73 enzymatic assay (luciferase-based indirect assay, CellTiter-Glo). It counts as biochemical. Conditions: 0.4 nM CD73, 150 μM AMP, 1 hour at room temperature. Summed up:
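Residual AMP inhibits luciferase, so luminescence reports CD73 turnover; read with CellTiter-Glo 2.0 plus 1 μM final ATP, 30 min. Reaction used 0.4 nM N-His CD73 (27-549, E. coli), 150 μM AMP, HEPES pH 7.4 with Tween 20, 1 h at room temperature. IC50 fitted by nonlinear regression.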

The next test concerns the target T2, human CD73 (Homo sapiens, UniProt P21589).
T2 construct: expressed in transfected cells
T2 sequence (P21589 27-549): T1 sequence (P21589 27-549)
The test is described as follows: Inhibitor activity against CD73 in cell based assay (CD73 expressing CHO-K1 cells). The note with it: CHO-K1 cells expressing human CD73, 150 μM AMP, 4 hours of incubation; read-out: CHO-K1 CELL VARIANT: CD73 IC50. The protocol:
Determine Inhibitor Activity Against CD73 in Cell Based Assay
CD73 expressing CHO-K1 cell clones were generated upon stable transfection of a plasmid expressing human CD73 under the control of CMV promoter. Cells were selected in Ham's F-12K (Kaighn's) media supplemented with 10% fetal bovine serum and 1 mg/ml G418 at 37° C. in a humidified incubator supplied with 5% CO2. The assays were performed as follows. Cells were seeded in a 96 well plate in 50 μL of culture media at a density of 1×10^4 per well. Compound at a maximal concentration of 5 mM was serially diluted 1:3 in DMSO for a total of 8 point titration. A 2 μL aliquot of each dilution point was added to 248 μL culture media and 25 µL was added to each well, providing 10 μM compound at the maximum concentration point. AMP was diluted in culture media and 25 μL was added to each well with a final concentration of 150 μM. 4 wells containing 0.2% DMSO treated cells and AMP served as high controls and 4 wells containing media only with 0.2% DMSO and AMP served as low controls. After 4 hours of incubation, 20 μL of the supernatant was transferred to a 384 well plate. AMP level in supernatant was measured indirectly by adding 5 μL of CellTiter-Glo® 2.0 reagent and 5 μL of ATP with a final concentration of 1 μM. Following incubation of plate at room temperature for 30 minutes, luminescent signal was read on a Tecan plate reader. The percentage inhibition at individual concentrations relative to high and low controls was calculated. The data were analyzed by using nonlinear regression to generate IC50 values.

Regarding `CS(=O)(=O)N1CCC(NC(=O)N[C@@H]2CCN(c3cn[nH]c(=O)c3Cl)C2)CC1` [P-0076, (R)-1-(1-(5-chloro-6-oxo-1,6-dihydropyridazin-4-yl)pyrrolidin-3-yl)-3-(1-(methylsulfonyl)piperidin-4-yl)urea], the results for the IC50 (in test [1]; on human CD73) were 0.001 to 10 µM and 10 to 100 µM, respectively.

Regarding `O=C(NC1CCCCC1)OC1CCN(c2cn[nH]c(=O)c2Cl)C1` (stereo not drawn) [P-0077, 1-(5-chloro-6-oxo-1,6-dihydropyridazin-4-yl)pyrrolidin-3-yl cyclohexylcarbamate], the IC50 (in test [1]; at human CD73) was 0.001 to 10 µM throughout.

In the case of `O=C(NC1CCC1)N[C@@H]1CCN(c2cn[nH]c(=O)c2Cl)C1` [P-0085, (R)-1-(1-(5-chloro-6-oxo-1,6-dihydropyridazin-4-yl)pyrrolidin-3-yl)-3-cyclobutylurea], the IC50 fell in the range of 0.001 to 10 µM in test [1] and 10 to 100 µM on human CD73.

Take `O=C(NC1CCS(=O)(=O)CC1)N[C@@H]1CCN(c2cn[nH]c(=O)c2Cl)C1` [P-0086, (R)-1-(1-(5-chloro-6-oxo-1,6-dihydropyridazin-4-yl)pyrrolidin-3-yl)-3-(1,1-dioxidotetrahydro-2H-thiopyran-4-yl)urea]: the IC50 in test [1] was 0.001 to 10 µM; on human CD73, 10 to 100 µM.

Consider `O=C(CO)NC1CCC(NC(=O)N[C@@H]2CCN(c3cn[nH]c(=O)c3Cl)C2)CC1` (stereo partly drawn) [P-0088, (R)-N-(4-(3-(1-(5-chloro-6-oxo-1,6-dihydropyridazin-4-yl)pyrrolidin-3-yl)ureido)cyclohexyl)-2-hydroxyacetamide], for which the figures for the IC50 (in test [1]; at human CD73) were 0.001 to 10 µM and 10 to 100 µM, respectively.

For `CC(C)(C)OC(=O)N1CCC(NC(=O)O[C@@H]2CCN(c3cn[nH]c(=O)c3Cl)C2)CC1` [P-0089, tert-butyl (R)-4-((((1-(5-chloro-6-oxo-1,6-dihydropyridazin-4-yl)pyrrolidin-3-yl)oxy)carbonyl)amino) piperidine-1-carboxylate], the IC50 (in test [1]; at human CD73) was 0.001 to 10 µM in each case.

As to `CC(=O)N1CCC(NC(=O)O[C@@H]2CCN(c3cn[nH]c(=O)c3Cl)C2)CC1` [P-0090, (R)-1-(5-chloro-6-oxo-1,6-dihydropyridazin-4-yl)pyrrolidin-3-yl (1-acetylpiperidin-4-yl)carbamate], the IC50 (in test [1]; on human CD73) was 0.001 to 10 µM each time.

Consider `CS(=O)(=O)NC1CCC(NC(=O)N[C@@H]2CCN(c3cn[nH]c(=O)c3Cl)C2)CC1` (stereo partly drawn) [P-0091, (R)-N-(4-(3-(1-(5-chloro-6-oxo-1,6-dihydropyridazin-4-yl)pyrrolidin-3-yl)ureido)cyclohexyl) methanesulfonamide], for which the IC50 (in test [1]; on human CD73) was 0.001 to 10 µM each time.

For `O=C(NC1CC1)O[C@@H]1CCN(c2cn[nH]c(=O)c2Cl)C1` [P-0092, (R)-1-(5-chloro-6-oxo-1,6-dihydropyridazin-4-yl)pyrrolidin-3-yl cyclopropylcarbamate], the IC50 (in test [1]; on human CD73) was 0.001 to 10 µM throughout.

`O=C(Nc1ccccc1)O[C@@H]1CCN(c2cn[nH]c(=O)c2Cl)C1` [P-0093, (R)-1-(5-chloro-6-oxo-1,6-dihydropyridazin-4-yl)pyrrolidin-3-yl phenylcarbamate]: the half-maximal inhibitory concentration (IC50) (in test [1]; at human CD73) was 0.001 to 10 µM each time.

On to `O=C(Nc1ccc(Cl)cc1)O[C@@H]1CCN(c2cn[nH]c(=O)c2Cl)C1` [P-0094, (R)-1-(5-chloro-6-oxo-1,6-dihydropyridazin-4-yl)pyrrolidin-3-yl (4-chlorophenyl)carbamate], for which the values for the IC50 (in test [1]; on human CD73) were 0.001 to 10 µM and 10 to 100 µM, respectively.

With `O=C(NCC1CCCC1)O[C@@H]1CCN(c2cn[nH]c(=O)c2Cl)C1` [P-0095, (R)-1-(5-chloro-6-oxo-1,6-dihydropyridazin-4-yl)pyrrolidin-3-yl (cyclopentylmethyl)carbamate], the IC50 (in test [1]; on human CD73) was 0.001 to 10 µM each time.

Take `O=C(NCC(F)(F)F)O[C@@H]1CCN(c2cn[nH]c(=O)c2Cl)C1` [P-0096, (R)-1-(5-chloro-6-oxo-1,6-dihydropyridazin-4-yl)pyrrolidin-3-yl (2,2,2-trifluoroethyl)carbamate]: the IC50 (in test [1]; at human CD73) was 0.001 to 10 µM in each case.

`O=C(NC1CCOCC1)O[C@@H]1CCN(c2cn[nH]c(=O)c2Cl)C1` [P-0097, (R)-1-(5-chloro-6-oxo-1,6-dihydropyridazin-4-yl)pyrrolidin-3-yl (tetrahydro-2H-pyran-4-yl)carbamate]: the IC50 (in test [1]; at human CD73) was 0.001 to 10 µM in each case.

With `CN(C(=O)O[C@@H]1CCN(c2cn[nH]c(=O)c2Cl)C1)C1CCCCC1` [P-0099, (R)-1-(5-chloro-6-oxo-1,6-dihydropyridazin-4-yl)pyrrolidin-3-yl cyclohexyl(methyl)carbamate], the IC50 in test [1] was 0.001 to 10 µM; at human CD73, 10 to 100 µM.

With `O=C(NCc1ccccc1)O[C@@H]1CCN(c2cn[nH]c(=O)c2Cl)C1` [P-0100, (R)-1-(5-chloro-6-oxo-1,6-dihydropyridazin-4-yl)pyrrolidin-3-yl benzylcarbamate], the figures for the 50% inhibitory concentration (IC50) (in test [1]; on human CD73) were 0.001 to 10 µM and 10 to 100 µM, respectively.

For the compound `O=C(Nc1cccc(Cl)c1)O[C@@H]1CCN(c2cn[nH]c(=O)c2Cl)C1` [P-0101, (R)-1-(5-chloro-6-oxo-1,6-dihydropyridazin-4-yl)pyrrolidin-3-yl (3-chlorophenyl)carbamate], the IC50 (in test [1]; on human CD73) was 0.001 to 10 µM throughout.

Turning to `CCOC(=O)N1CCC(NC(=O)O[C@@H]2CCN(c3cn[nH]c(=O)c3Cl)C2)CC1` [P-0102, ethyl (R)-4-((((1-(5-chloro-6-oxo-1,6-dihydropyridazin-4-yl)pyrrolidin-3-yl)oxy)carbonyl)amino) piperidine-1-carboxylate], the IC50 (in test [1]; on human CD73) was 0.001 to 10 µM in each case.

`O=C(N[C@@H]1CCN(c2cn[nH]c(=O)c2Cl)C1)N[C@@H]1CCN(c2cn[nH]c(=O)c2Cl)C1` [P-0103, 1,3-bis((R)-1-(5-chloro-6-oxo-1,6-dihydropyridazin-4-yl)pyrrolidin-3-yl)urea]: the IC50 in test [1] lay in the range of 0.001 to 10 µM; at human CD73, 10 to 100 µM.

For the compound `O=C(NC1CC(F)(F)C1)O[C@@H]1CCN(c2cn[nH]c(=O)c2Cl)C1` [P-0104, (R)-1-(5-chloro-6-oxo-1,6-dihydropyridazin-4-yl)pyrrolidin-3-yl (3,3-difluorocyclobutyl)carbamate], the IC50 (in test [1]; at human CD73) was 0.001 to 10 µM in each case.

As for `O=C(NC1CCN(C(=O)CO)CC1)O[C@@H]1CCN(c2cn[nH]c(=O)c2Cl)C1` [P-0105, (R)-1-(5-chloro-6-oxo-1,6-dihydropyridazin-4-yl)pyrrolidin-3-yl (1-(2-hydroxyacetyl)piperidin-4-yl)carbamate], the IC50 (in test [1]; at human CD73) was 0.001 to 10 µM each time.

For the compound `O=C(NC1CCC(F)(F)CC1)O[C@@H]1CCN(c2cn[nH]c(=O)c2Cl)C1` [P-0106, (R)-1-(5-chloro-6-oxo-1,6-dihydropyridazin-4-yl)pyrrolidin-3-yl (4,4-difluorocyclohexyl)carbamate], the IC50 (in test [1]; at human CD73) was 0.001 to 10 µM each time.

As for `O=C(N[C@H]1CCOC1)O[C@@H]1CCN(c2cn[nH]c(=O)c2Cl)C1` [P-0107, (R)-1-(5-chloro-6-oxo-1,6-dihydropyridazin-4-yl)pyrrolidin-3-yl ((S)-tetrahydrofuran-3-yl)carbamate], the IC50 (in test [1]; at human CD73) was 0.001 to 10 µM in each case.

On to `O=C(N[C@@H]1CCOC1)O[C@@H]1CCN(c2cn[nH]c(=O)c2Cl)C1` [P-0108, (R)-1-(5-chloro-6-oxo-1,6-dihydropyridazin-4-yl)pyrrolidin-3-yl ((R)-tetrahydrofuran-3-yl)carbamate], for which the IC50 (in test [1]; on human CD73) was 0.001 to 10 µM each time.
